“Also recorded” adds a separate entry of the source.
How the values were obtained:
plasma PGE2 = experiment: Plasma PGE2 of mice at 6 h after traumatic injury; format: in vivo, BALB/c mice; conditions: for PGE2 levels at 6 h: pooled serum n=6
Procedure: Vehicle mice were injected with a 4% DMSO solution. To evaluate the efficacy of NS-398 on plasma PGE2 levels, mouse blood was collected at 6 hours after injury±treatment. […] At 6 hours after trauma, plasma PGE2 levels were increased from […] to 49,733 […]).

NF-κB = experiment: Electrophoretic mobility shift assay of nuclear NF-κB in splenic macrophages; format: in vivo, BALB/c mice; conditions: NS-398 treatment after trauma, over 7 days
Procedure: NF-κB gel shift oligonucleotide 5′ AGTTGAGGGGACTTTCCCAGGC 3′ (Santa Cruz Laboratories, Santa Cruz, Calif.) was end labeled with (^32P)γATP using polynucleotide kinase T4 (Gibco BRL, Grand Island, N.Y.). End labeled probe was purified from unincorporated (^32P)-γATP using a purification column (Bio-Rad Laboratories) and recovered in tris-EDTA buffer. Samples consisted of adherent macrophages collected after 45 minutes stimulation with 10 ng/mL LPS. Adherent cells were scraped into 1 mL of cold HANKS balanced salt solution. The cell suspension was pelleted after centrifugation in a microcentrifuge for 10 seconds and resuspended in 400 μl cold Buffer A (10 mM HEPES-KOH pH 7.9 at 4° C., 1.5 mM MgCl2, 10 mM KCl, 0.5 mM dithiothreitol, 0.2 mM PMSF) by agitation of the tube. The cells were allowed to swell on ice for 10 minutes, and then vortexed for 10 seconds. Samples were centrifuged for 10 seconds and the supernatant fraction was saved at −70° C. for IκB analysis. The pellet was resuspended in 20-100 μl of cold buffer C (20 mM HEPES-KOH pH 7.9, 25% glycerol, 420 mM NaCl, 1.5 mM MgCl2. 0.2 mM EDTA, 0.5 mM dithiothreitol 0.2 mM PMSF) and incubated on ice for 20 minutes. […] Samples were subjected to electrophoretic separation on a non denaturing 5% poly-acrylamide gel at 30 mA using Tris borate EDTA for 45 minutes and analyzed by exposure to radiographic film (Kodak, Rochester, N.Y.).

EP2 receptor = EP2 receptor expression in LPS stimulated human PBMC's via RT-PCR; format: cell-based; conditions: PBMC's after injury, co-incubation with NS-398
Procedure: Serial dilutions were made to co-culture cells with a final concentration of […] NS-398 in a 0.1% DMSO. Control and trauma groups were co-cultured with 0.1% DMSO vehicle for comparisons with NS-398 treated groups.

For CS(=O)(=O)Nc1ccc([N+](=O)[O-])cc1OC1CCCCC1 [NS-398, N-(2-cyclohexyloxy-4-nitrophenyl)methanesulfonamide], the “PGE2 levels at 6 h” value (plasma PGE2; Control + NS-398, plasma) was 35,961 pg/ml, the “PGE2 levels at 6 h” value (plasma PGE2; Trauma + NS-398, plasma) was 29,902 pg/ml and the plasma PGE2 levels (plasma PGE2; injured mice treated with NS-398 (TN), 6 hours after trauma) was 29900 pg/mL. The NF-κB activation (NF-κB) was “a decrease in NF-κB activation” and the EP2 receptor expression (EP2 receptor) was “returns to control levels; also recorded: restored”.

Source: patent US20020006915A1, “Use of COX-2 inhibitors to treat sepsis, complications thereof, and EP receptor modulation” (priority 2000, published 2002)
